Experimental data taken from patent US20240294545A1 (CSPC Zhongqi Pharmaceutical Technology (Shijiazhuang) Co., …, priority 2020, published 2024).
Marks after values point to notes of the source that are not given here.

Columns and labels:
[1] = tested on: subcutaneous xenograft tumor of human glioblastoma LN-18; experiment: LN-18 subcutaneous xenograft, combined with radiotherapy; format: in vivo, NOG mice; details: compound 10 mg/kg intragastric qd × 5 + IR 1 Gy, day 17
Procedure, shortened: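 Female NOG mice (18–22 g) bearing subcutaneous LN-18 tumours (1.5*10^7 cells, right costal region) were grouped at 100–150 mm^3; radiotherapy followed compound dosing by 1 h. Caliper volumes twice weekly (0.5×long×short^2); TGI % derived from treated vs control mean volume changes from day 0.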

ATM-phosphorylated KAP1 = experiment: Intracellular ATM-phosphorylated KAP1 level, ICW assay in MCF7 cells; format: cell-based, Human; details: Homo sapiens, light or radiation study; MCF7 cells, 2 h compound, 10 Gy irradiation, further 1 h; read-out: pKAP1 IC50
Experimental: 4 Inhibition on Intracellular ATM-Phosphorylated KAP1 Level by the Compounds of the Present Disclosure: ICW Assay
• Cell: Human breast cancer cell line MCF7 • Materials and reagents:
4.2 Experimental Procedures
• (1) Cell inoculation • MCF7 cells were inoculated on a 384-well plate, 10000 cells/well (25 μL/well), and cultured overnight at 37° C. with 5% CO2. • (2) Activity detection • 1) The compound was formulated into a 100 mM solution with DMSO and then sequentially diluted with a gradient of 1:3 to yield a total of 10 concentration gradients, wherein the maximum concentration was 100 μM. • 2) 25 nL of each of the compound solutions with gradient concentrations prepared in step 1) was added to each well of the cell plate (Corning #356663) by using I-DOT One, resulting in a final concentration of 100 nM (maximum dose). • 3) The cell plate containing compound was incubated at 37° C. with 5% CO2 for 2 h. After 2 h, the cell plate was irradiated with a dose of 10 Gy, and then further incubated for 1 h. • 4) 25 μL of 8% paraformaldehyde was added to each well, followed by incubating at room temperature for 20 min. • 5) The 8% paraformaldehyde was discarded, followed by adding 0.1% TrintonX-100 and incubating at room temperature for 30 min. • 6) Odessey blocking buffer was added at 50 μL/well, followed by incubating at room temperature for 1.5 h. • 7) The Odessey blocking buffer was discarded, and then a primary antibody (Phospho-KAP1, 1:2000 dilution) was added, followed by incubating overnight at 4° C. • 8) The primary antibody was removed, followed by washing with PBS+0.1% Tween 20 for 5 times. • 9) DNA dye DRAQ5 coated with a second antibody (IRDye 800CW Goat anti-Rabbit, 1:4000 dilution) was added, followed by incubating at room temperature for 1 h. • 10) The second antibody was removed, followed by washing with PBS+0.1% Tween 20 for 5 times. • 11) PBS+0.1% Tween 20 was sucked off with Odyssey. • (3) Data analysis • 1) the relative ratio of Channel 800/Channel 700 for each well was detected. • 2) % of KAP1 phosphorylation was calculated according to the following formula:
% of KAP1 phosphorylation=[(Ratiocmpd−(Ratio)Positive)/((Ratio)Vehicle−(Ratio)Positive]*100 • (Ratio)Positive: the mean value of the test values of each positive control well in the test cell plate; • (Ratio)Vehicle: the mean value of the test values of each negative control well in the test cell plate. • 3) the IC50 of each compound was calculated and the dose-effect curve was plotted: % of KAP1 phosphorylation and log of compound's concentration were fit by using Graphpad 8.0 so as to calculate the IC50.
[formula] • X: log of compound's concentration • Y: % of KAP1 phosphorylation

ATM = ATM (Homo sapiens (Human), UniProt Q13315); experiment: Caliper mobility shift assay for ATM; format: biochemical; details: read-out: IC50 of inhibitory activity on ATM kinase
ATM, sequence (Q13315 whole entry): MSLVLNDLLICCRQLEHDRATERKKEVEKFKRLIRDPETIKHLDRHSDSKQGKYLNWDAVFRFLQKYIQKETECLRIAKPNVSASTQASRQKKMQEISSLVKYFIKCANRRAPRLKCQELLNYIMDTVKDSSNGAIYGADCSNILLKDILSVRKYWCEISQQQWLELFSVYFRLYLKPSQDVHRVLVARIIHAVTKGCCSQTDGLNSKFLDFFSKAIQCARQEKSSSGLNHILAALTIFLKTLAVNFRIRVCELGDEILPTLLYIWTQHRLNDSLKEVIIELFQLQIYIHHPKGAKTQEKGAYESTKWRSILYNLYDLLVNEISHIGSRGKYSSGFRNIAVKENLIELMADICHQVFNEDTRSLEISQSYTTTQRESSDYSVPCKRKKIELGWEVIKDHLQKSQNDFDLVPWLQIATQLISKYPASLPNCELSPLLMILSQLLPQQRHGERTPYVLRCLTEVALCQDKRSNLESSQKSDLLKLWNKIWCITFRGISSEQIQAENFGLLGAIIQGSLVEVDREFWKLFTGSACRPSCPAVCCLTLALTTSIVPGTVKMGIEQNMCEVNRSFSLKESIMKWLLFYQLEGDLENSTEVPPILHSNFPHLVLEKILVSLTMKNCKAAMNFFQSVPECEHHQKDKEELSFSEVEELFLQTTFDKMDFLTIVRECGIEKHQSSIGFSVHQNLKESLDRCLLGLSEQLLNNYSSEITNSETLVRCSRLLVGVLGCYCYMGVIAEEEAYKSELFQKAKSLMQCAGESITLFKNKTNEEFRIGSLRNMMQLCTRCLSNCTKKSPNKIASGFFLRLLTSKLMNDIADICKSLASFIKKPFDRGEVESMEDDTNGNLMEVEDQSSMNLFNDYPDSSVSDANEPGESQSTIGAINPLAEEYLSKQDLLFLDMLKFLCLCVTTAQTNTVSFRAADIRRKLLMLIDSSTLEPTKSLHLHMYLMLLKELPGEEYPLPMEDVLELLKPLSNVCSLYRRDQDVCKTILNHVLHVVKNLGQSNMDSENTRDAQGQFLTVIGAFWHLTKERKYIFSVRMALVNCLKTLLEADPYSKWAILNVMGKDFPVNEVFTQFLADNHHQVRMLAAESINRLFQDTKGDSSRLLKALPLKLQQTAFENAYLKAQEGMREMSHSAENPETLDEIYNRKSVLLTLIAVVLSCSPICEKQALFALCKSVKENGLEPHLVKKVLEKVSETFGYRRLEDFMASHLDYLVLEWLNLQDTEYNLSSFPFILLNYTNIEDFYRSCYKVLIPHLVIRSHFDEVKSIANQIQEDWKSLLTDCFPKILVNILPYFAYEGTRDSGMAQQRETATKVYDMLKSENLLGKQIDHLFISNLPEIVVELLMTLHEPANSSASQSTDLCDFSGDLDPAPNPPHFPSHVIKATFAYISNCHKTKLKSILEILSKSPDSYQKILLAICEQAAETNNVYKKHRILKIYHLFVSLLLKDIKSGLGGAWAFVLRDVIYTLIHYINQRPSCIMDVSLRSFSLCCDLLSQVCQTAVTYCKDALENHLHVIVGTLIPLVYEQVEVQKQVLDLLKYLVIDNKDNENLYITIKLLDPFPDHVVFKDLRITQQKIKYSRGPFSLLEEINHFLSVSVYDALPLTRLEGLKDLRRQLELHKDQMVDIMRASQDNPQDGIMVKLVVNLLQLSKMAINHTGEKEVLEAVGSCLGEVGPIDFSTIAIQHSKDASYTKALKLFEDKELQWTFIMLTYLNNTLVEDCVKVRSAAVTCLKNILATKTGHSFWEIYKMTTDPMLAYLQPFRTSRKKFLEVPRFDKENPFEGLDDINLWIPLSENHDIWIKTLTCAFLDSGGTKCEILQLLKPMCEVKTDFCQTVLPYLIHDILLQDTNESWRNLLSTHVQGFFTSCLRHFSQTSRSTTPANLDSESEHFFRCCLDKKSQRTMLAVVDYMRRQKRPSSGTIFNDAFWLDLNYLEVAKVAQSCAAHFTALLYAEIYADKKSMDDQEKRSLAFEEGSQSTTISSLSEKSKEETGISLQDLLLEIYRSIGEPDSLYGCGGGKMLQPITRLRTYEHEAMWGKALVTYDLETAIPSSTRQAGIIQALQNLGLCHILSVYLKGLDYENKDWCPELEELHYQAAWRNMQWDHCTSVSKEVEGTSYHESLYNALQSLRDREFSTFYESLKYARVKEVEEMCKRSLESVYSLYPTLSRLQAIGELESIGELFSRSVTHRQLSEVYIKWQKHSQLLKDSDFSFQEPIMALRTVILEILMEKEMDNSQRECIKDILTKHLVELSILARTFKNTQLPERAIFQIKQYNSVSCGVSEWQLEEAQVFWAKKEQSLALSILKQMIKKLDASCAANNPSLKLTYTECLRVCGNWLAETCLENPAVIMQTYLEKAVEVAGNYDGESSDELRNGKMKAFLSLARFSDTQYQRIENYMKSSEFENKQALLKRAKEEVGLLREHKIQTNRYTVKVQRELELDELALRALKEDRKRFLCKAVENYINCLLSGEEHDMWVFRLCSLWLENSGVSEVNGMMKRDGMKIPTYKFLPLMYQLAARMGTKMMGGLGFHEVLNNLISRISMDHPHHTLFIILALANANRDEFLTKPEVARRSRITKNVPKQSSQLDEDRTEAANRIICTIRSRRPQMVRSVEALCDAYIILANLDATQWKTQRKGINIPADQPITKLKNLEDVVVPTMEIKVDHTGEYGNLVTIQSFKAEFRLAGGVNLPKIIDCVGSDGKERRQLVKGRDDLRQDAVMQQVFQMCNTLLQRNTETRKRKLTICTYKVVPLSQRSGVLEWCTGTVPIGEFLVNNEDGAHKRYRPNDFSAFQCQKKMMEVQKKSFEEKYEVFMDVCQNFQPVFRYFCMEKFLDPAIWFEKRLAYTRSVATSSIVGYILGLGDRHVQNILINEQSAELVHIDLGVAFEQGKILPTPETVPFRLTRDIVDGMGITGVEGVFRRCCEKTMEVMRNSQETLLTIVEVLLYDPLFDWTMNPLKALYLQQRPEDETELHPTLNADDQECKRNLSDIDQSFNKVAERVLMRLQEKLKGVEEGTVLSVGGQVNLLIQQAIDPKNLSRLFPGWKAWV
Experimental: 1.2 Determination of the Inhibitory Activities of Compounds on ATM: Caliper Mobility Shift Assay for ATM
To a 96-well plate, 98 μL of DMSO and 2 μL of the 10 mM stock solution were added and mixed evenly so that the concentration of the solution was 200 μM.
Based on the inhibitory rates of the compound at different concentrations, IC50 was calculated according to the formula: Y=Bottom+(Top−Bottom)/(1+(IC50/X)^HillSlope).

IC50 (ATM-phosphorylated KAP1) | IC50 (ATM) | SMILES | D 17 TGI [1] | D 17 TV (MEAN ± SD) [1]
0.45 nM | 0.2 nM | CC(C)n1c(=O)n(C)c2cnc3cc(F)c(-c4ccc(OCCCN5CCCCC5)nc4)cc3c21 [AZD1390, reference compound] | 82.8% | 294 ± 52***^# mm^3
1.75 nM | 0.65 nM | Cn1c(=O)n2c3c4c(c(-c5ccc(OCCCN6CCCCC6)nc5)c(F)cc4ncc31)NCC2(C)C [Example A-193, 6-fluoro-2,10,10-trimethyl-7-(6-(3-(piperidin-1-yl)propoxy)pyridin-3-yl)-2,8,9,10-tetrahydro-1H-2,4,8,10a-tetraazanaphtho[2,1,8-cde]azulen-1(2H)-one] | 81.1% | 310 ± 61***^# mm^3
